Measured values taken from paper PMC9391358, “Crystal structures reveal catalytic and regulatory mechanisms of the dual-specificity ubiquitin/FAT10 E1 enzyme Uba6” (Nature Communications, 2022).

Assays:
Uba6 SCCH domain = target: T1, Uba6 SCCH domain (Homo sapiens, UniProt A0AVT1); assay: thermal shift assay (SYPRO Orange); type: binding; conditions: ~43 °C without ligand, 20 mM HEPES pH 7.5, 150 mM NaCl, 0.25 mM TCEP, E. coli-derived
T1 construct: standalone SCCH domain, residues 615-892, E. coli, SMT3 tag cleaved by ULP1
T1 sequence (A0AVT1 615-892): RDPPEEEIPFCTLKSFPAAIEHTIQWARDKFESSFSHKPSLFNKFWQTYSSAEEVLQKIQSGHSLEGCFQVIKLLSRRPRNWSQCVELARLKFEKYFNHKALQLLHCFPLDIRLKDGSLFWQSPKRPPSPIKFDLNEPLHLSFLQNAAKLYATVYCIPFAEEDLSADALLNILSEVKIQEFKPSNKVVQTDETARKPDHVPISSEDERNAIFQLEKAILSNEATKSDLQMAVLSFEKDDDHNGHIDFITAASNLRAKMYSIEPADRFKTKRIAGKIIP

Uba6 (Uba6_Apo; Uba6_WT) [1] = target: T2, Uba6 (Uba6_Apo; Uba6_WT) (Homo sapiens, UniProt A0AVT1); assay: isothermal titration calorimetry; type: binding
T2 construct: residues 37-1052; crystal from insect cells, His tag cleaved by TEV, C625A
T2 sequence (A0AVT1 37-1052): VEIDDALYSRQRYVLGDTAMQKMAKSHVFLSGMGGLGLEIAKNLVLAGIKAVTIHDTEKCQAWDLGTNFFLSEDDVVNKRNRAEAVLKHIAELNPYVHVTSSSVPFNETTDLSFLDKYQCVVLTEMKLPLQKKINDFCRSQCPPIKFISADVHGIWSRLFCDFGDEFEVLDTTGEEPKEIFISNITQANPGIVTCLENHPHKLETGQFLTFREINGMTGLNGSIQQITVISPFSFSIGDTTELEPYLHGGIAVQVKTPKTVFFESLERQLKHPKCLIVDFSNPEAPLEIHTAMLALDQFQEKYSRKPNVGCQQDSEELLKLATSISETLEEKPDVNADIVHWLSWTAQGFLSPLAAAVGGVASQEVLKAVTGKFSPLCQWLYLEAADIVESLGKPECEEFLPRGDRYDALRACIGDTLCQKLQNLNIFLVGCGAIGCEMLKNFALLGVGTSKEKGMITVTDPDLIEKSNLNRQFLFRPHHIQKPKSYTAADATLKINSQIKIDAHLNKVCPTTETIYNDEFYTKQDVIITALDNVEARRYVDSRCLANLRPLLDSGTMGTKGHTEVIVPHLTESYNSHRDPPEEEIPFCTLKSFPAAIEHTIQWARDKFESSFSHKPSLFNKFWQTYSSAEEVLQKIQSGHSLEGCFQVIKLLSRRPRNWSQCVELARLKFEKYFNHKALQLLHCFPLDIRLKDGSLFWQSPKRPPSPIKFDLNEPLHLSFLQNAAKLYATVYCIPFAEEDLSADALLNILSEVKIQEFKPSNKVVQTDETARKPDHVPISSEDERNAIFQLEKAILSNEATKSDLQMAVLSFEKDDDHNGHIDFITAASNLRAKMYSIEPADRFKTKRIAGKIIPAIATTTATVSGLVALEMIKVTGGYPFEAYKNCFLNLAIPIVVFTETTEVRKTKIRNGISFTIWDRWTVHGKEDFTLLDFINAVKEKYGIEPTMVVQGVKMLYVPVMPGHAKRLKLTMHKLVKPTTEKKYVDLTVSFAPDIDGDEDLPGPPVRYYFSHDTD

Uba6 (Uba6_Apo; Uba6_WT) [2] = target: T2, Uba6 (Uba6_Apo; Uba6_WT); assay: binding test, method not given
Uba1 (Uba1_WT) = target: T3, Uba1 (Uba1_WT) (Homo sapiens, UniProt P22314); assay: gel-based Uba1~Ub thioester formation, […] s; type: biochemical; conditions: ubiquitin 2.5 μM, 0-50 μM InsP6, 100 nM E1, 500 μM ATP, 5 mM MgCl2, pH 7.4, RT
T3 construct: E. coli-produced Uba1; a Uba1 SCCH domain (625-892) was also made and may be the ITC sample
T3 sequence (P22314 2-1058): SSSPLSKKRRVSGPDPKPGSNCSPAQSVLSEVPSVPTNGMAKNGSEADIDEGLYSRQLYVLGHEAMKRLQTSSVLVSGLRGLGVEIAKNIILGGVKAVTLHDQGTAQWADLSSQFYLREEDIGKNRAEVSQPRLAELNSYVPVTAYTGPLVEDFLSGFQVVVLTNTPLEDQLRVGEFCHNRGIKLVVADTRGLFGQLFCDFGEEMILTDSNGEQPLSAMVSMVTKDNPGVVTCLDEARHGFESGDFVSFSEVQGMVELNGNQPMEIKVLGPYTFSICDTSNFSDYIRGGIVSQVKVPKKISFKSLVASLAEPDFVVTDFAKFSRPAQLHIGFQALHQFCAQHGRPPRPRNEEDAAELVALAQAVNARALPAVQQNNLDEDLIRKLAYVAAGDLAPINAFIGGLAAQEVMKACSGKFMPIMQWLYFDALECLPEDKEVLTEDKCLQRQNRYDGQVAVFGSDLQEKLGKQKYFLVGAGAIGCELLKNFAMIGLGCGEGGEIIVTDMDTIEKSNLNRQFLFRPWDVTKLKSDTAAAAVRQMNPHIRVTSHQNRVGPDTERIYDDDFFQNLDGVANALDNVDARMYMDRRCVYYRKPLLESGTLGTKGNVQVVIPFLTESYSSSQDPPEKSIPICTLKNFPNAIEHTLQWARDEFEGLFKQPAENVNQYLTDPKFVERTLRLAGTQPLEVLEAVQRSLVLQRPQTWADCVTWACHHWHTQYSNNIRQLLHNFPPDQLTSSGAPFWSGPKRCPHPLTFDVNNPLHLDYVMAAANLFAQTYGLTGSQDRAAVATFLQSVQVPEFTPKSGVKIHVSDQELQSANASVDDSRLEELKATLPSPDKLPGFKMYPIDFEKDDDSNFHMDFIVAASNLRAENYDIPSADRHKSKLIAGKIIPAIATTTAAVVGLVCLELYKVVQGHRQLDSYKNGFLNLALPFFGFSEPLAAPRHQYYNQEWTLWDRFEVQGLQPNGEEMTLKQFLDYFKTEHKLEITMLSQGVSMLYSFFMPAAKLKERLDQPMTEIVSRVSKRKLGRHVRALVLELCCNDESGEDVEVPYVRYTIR

For `O=P(O)(O)O[C@@H]1[C@@H](OP(=O)(O)O)[C@H](OP(=O)(O)O)[C@H](O)[C@H](OP(=O)(O)O)[C@H]1OP(=O)(O)O` [InsP5, D-myo-Inositol 1,3,4,5,6-pentakisphosphate], the melting temperature (Uba6 SCCH domain; 100 μM InsP5) was 54 °C and the Kd (Uba6 (Uba6_Apo; Uba6_WT) [1]) was 73 nM.

In the case of `O=P(O)(O)O[C@@H]1[C@H](O)[C@H](O)[C@@H](OP(=O)(O)O)[C@H](OP(=O)(O)O)[C@H]1O` [InsP3, D-myo-Inositol 1,4,5-trisphosphate], the melting temperature (Uba6 SCCH domain; 100 μM InsP3) is reported as 47 °C and the Kd (Uba6 (Uba6_Apo; Uba6_WT) [1]) is reported as 248 nM.

With `O[C@H]1[C@H](O)[C@@H](O)[C@H](O)[C@@H](O)[C@H]1O` [myo-inositol] the “binding test, method not given” value (Uba6 (Uba6_Apo; Uba6_WT) [2]) was “myo-inositol (which lacks phosphates) fails to bind with Uba6 with detectable affinity”.

In the case of `O=P(O)(O)O[C@H]1[C@H](OP(=O)(O)O)[C@@H](OP(=O)(O)O)[C@H](OP(=O)(O)O)[C@@H](OP(=O)(O)O)[C@H]1OP(=O)(O)O` [InsP6], the IC50 (Uba1 (Uba1_WT)) is reported as “InsP6 failed to inhibit Uba1 activation of Ub”.
